Experimental data published in paper PMC6009943, “One-pot three-component synthesis of novel spirooxindoles with potential cytotoxic activity against triple-negative breast cancer MDA-MB-231 cells” (Journal of Enzyme Inhibition and Medicinal Chemistry, 2017).

What was measured:
[1] = system: Bcl-2; assay: Bcl-2 level in MDA-MB-231 cells (ELISA); type: cell-based; details: MDA-MB-231 cells treated with compound at its IC50 concentration
Protocol: (§1) The levels of the apoptotic markers (Bax, caspase-3) as well as the anti-apoptotic marker (Bcl-2) were assessed using ELISA colorimetric kits per the manufacturer’s protocol and referring to reported instructions[21]^,[22].
(§2) Bcl-2 family comprises a group of crucial regulatory factors in apoptosis that finely tune the apoptotic switch on/off mechanism. Based on their functional and structural criteria, the members are divided into two major classes; group I proteins that are anti-apoptotic and group II proteins that are apoptotic. Group I anti-apoptotic proteins exert their function by inhibiting group II apoptotic proteins through simply binding to them. Group I proteins bind selectively to the active conformations of group II proteins to prevent them from being inserted into the mitochondria and thus cease the release of pro-apoptotic factors such as cytochrome c, ultimately aborting apoptosis. Thus, the inhibition of group I proteins and/or the activation of group II proteins can successfully induce apoptosis.

[2] = molecular target: T1, EGFR (Homo sapiens, UniProt P00533); assay: EGFR kinase ELISA assay; type: biochemical; details: colorimetric ELISA, mean ± SD of three separate experiments
T1 construct: purchased BPS Biosciences 40321
Protocol: Percent inhibition was calculated by the comparison of compounds treated to control incubations.
Erlotinib, a clinically used EGFR inhibitor, was taken as the reference drug.

[3] = system: MDA-MB-231 cells; assay: Annexin V-FITC apoptosis assay; type: cell-based; details: MDA-MB-231, 24 h
Protocol: Phosphatidylserine externalization was measured using Annexin V-FITC/PI apoptosis detection kit (BD Biosciences, San Jose, CA) according to the manufacturer's instructions, as reported earlier. MDA-MB-231cells were treated with 6e at defined concentrations for 24 h.
Externalization of the phospholipid phosphatidylserine at the cell membrane is a one of the well-recognized hallmarks of cells going into apoptosis[17]^,[29].

[4] = system: MDA-MB-231 cells; assay: Cell cycle analysis (DNA flow cytometry)
Protocol: Then cells were washed twice with ice-cold phosphate buffered saline (PBS). Subsequently, the treated cells were collected by centrifugation, fixed in ice-cold 70% (v/v) ethanol, washed with PBS, re-suspended with 0.1 mg/mL RNase, stained with 40 mg/mL PI, and analyzed by flow cytometry using FACS Calibur (Becton Dickinson, BD, USA). The cell cycle distributions were calculated using CellQuest software (Becton Dickinson).

[5] = system: caspase-3; assay: Active caspase-3 level in MDA-MB-231 cells (ELISA); type: cell-based; details: MDA-MB-231 cells treated with compound at its IC50 concentration
Protocol: as §1
Caspases, a family of cysteineaspartic proteases, are the crucial apoptosis mediators that provide essential links in cell regulatory networks controlling cell death. Caspase-3 is the key executioner caspase which modifies proteins ultimately responsible for apoptosis.

[6] = system: Bax; assay: Bax level in MDA-MB-231 cells (ELISA); type: cell-based; details: MDA-MB-231 cells treated with compound at its IC50 concentration
Protocol: as §1, §2

[7] = system: MDA-MB-231 cells; assay: In vitro anti-proliferative activity assay (MTT); type: cell-based; details: Homo sapiens, 48 h incubation
Protocol: Cells lines were maintained as monolayers in Dulbecco’s Modified Eagle’s Medium (DMEM) supplemented with 10% FBS, 2 mM L-glutamine, 100 U/ml penicillin and 100 µg/ml streptomycin sulfate. Cells were sub-cultured with trypsine/EDTA solution, counted with haemocytometer and plated onto 96-well plates (5000 cells/well) and left overnight to form a semi-confluent monolayer. […] DMSO (100 µl/well) was added to dissolve the formazan crystals with shaking for 10 min after which the absorbance was read at 590 nm against no cell blanks on a FLuo Star Optima microplate reader (BMG Technologies, Germany). Cell proliferation was calculated comparing the OD values of the DMSO control wells and those of the samples represented as % proliferation to the control.
The in vitro anti-proliferative activity of the newly synthesized spirooxindoles 6a–p was examined against TNBC MDA-MB-231 cells. This assay was performed utilizing the 3–(4,5-dimethylthiazol-2-yl)-2,5-diphenyltetrazolium bromide (MTT) colorimetric assay as described by Mosmann[18]. Adriamycin was included in this assay as a reference drug.

[8] = system: WI-38 cells; assay: In vitro cytotoxic activity, WI-38 cells (MTT); type: cell-based, human; details: Homo sapiens, WI-38, read-out: IC50 (µM) WI-38
Protocol: WI-38 cells ([…]), were obtained from American Type Culture Collection. The cells were propagated in DMEM supplemented with 10% heat-inactivated FBS (Hyclone), 10 μg/ml of insulin (Sigma), and 1% penicillin-streptomycin. All of the other chemicals and reagents were from Sigma, or Invitrogen. Cytotoxicity was determined using MTT assay following a reported procedure.

[9] = system: tsFT210 cells; design: method as in ref 7 = [7]; 7 Cui C-B , Kakeya H , Osada H. Novel mammalian cell cycle inhibitors, spirotryprostatins A and B, produced by Aspergillus fumigatus , which inhibit mammalian cell cycle at G2/M phase . Tetrahedron 19; details: read-out: IC50, inhibition of cell cycle progression at G2/M phase; cited from earlier work
[10] = system: MCF-7; design: method as in PMID 24747063; details: ordinary breast cancer; read-out: IC50, cytotoxic activity MCF-7; cited from earlier work
[11] = system: MDA-MB-231 cancer cell line; details: TNBC; read-out: IC50, cytotoxic activity MDA-MB-231; cited from earlier work
[12] = system: MDA cell lines; design: method as in ref 10 = [10]; 10 Jiang X , Sun Y , Yao J , et al Core scaffold‐inspired concise synthesis of chiral spirooxindole‐pyranopyrimidines with broad‐spectrum anticancer potency . Adv Synth Catal 2012; 354 : 917 – 25 .; details: read-out: IC50, cytotoxicity against MDA cell lines; cited from earlier work

T1 sequence (P00533 25-1210): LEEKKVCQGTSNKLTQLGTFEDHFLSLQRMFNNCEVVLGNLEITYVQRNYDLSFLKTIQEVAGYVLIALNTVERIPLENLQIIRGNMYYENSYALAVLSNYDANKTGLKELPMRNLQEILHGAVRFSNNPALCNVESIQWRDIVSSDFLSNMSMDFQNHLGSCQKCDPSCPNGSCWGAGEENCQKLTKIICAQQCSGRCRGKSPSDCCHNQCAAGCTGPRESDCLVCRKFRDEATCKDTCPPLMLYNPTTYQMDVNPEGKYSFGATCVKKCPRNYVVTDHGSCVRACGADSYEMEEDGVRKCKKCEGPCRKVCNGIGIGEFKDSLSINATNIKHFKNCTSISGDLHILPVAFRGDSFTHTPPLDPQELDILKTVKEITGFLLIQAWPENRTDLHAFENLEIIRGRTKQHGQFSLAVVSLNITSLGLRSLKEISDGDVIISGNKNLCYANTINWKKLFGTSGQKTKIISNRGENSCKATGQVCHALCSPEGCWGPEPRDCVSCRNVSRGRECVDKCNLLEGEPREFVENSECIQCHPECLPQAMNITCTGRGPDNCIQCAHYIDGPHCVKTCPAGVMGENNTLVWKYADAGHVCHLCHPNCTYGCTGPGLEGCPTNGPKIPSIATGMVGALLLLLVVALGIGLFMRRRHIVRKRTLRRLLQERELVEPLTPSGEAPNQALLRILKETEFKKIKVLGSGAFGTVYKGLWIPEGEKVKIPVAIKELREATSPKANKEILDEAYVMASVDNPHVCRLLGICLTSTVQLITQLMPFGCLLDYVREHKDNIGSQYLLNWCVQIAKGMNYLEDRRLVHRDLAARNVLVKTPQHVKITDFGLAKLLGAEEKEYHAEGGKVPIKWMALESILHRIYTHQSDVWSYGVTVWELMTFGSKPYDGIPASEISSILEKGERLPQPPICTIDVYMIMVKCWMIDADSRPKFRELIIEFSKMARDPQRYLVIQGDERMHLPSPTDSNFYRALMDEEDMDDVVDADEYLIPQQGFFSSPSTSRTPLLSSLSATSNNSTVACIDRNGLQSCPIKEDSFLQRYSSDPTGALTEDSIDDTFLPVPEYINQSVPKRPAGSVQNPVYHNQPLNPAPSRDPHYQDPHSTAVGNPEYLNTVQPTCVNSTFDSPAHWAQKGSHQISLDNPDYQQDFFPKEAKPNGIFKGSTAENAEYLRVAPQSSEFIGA

For `N#CC1=C(c2ccccc2)Nc2c(c(-c3cccs3)nn2-c2ccccc2)C12C(=O)Nc1ccc(Cl)cc12` (centres unmarked) [Compound 6e, 5-Chloro-2-oxo-1',6'-diphenyl-3'-(thiophen-2-yl)-1',7'-dihydrospiro[indoline-3,4'-pyrazolo[3,4-b]pyridine]-5'-carbonitrile], the “Bcl-2” value [1] was 0.7449 ng/mL, the “Bcl-2, number of folds of control” value [1] was 0.276 folds and the IC50 [2] was 0.15 ± 0.02 µM. The “Annexin V-FITC positive apoptotic cells, folds compared to control” value [3] was “about 32.8 folds”, the “Percent of annexin V-FITC positive apoptotic cells (UR + LR)” value ([3]; control 1.34%) was 44% and the “Cells in G2-M phase” value [4] was 19.1%. For the same molecule, the “Change in the S phase” value [4] was “no significant change”, the “Caspase-3” value [5] was 0.4058 ng/mL and the “Caspase-3, number of folds of control” value [5] was roughly 36.5 folds. For the same molecule, the “Bax” value [6] was 353.7 pg/mL, the “Bax, number of folds of control” value [6] was 442.1 folds and the IC50 [7] was 6.4 µM. It also gave an IC50 [8] of 43.2 µM.

In the case of `CC(C)=CC1N2C(=O)C3CCCN3C(=O)C2=CC12C(=O)Nc1ccccc12` (centres unmarked) [Spirotryprostatins B], the IC50 [9] is listed as 14 µM.

In the case of `CC(C)(C)C1=NN(c2ccccc2)C2(C(=O)Nc3c(Cl)cccc32)C1c1ccccc1` (centres unmarked) [compound (iii)], the IC50 [10] is listed as 8.6 µM and the IC50 [11] is listed as 6.4 µM.

For `CC(=O)n1c(C)nc2c(c1=O)[C@@]1(C(=O)Nc3c(F)cccc31)c1c(c3cc(F)ccc3oc1=O)O2` [derivative (ii)], the IC50 [12] is given as 6.9 µM.
